The NIST ThermoML archive (doi:10.1021/acs.jced.9b00074)
± gives the expanded uncertainty stated by the source.

Assay: xn = mol fraction of the nth substance listed
Details: 100 kPa, Liquid; for viscosity: Falling or rolling sphere viscometry; for mass density: Vibrating tube method

CC12CC3CC(C1)CC(C)(C3)C2 [1,3-dimethyladamantane] + OC1CCCC1
Details | mass density [kg/m3] | viscosity [mPa·s]
293.15 K, x2 = 0.0963 | 903.9 ± 0.55 | 3.868 ± 0.082
293.15 K, x2 = 0.1973 | 906.97 ± 0.55 | 4.123 ± 0.088
293.15 K, x2 = 0.3101 | 910.8 ± 0.55 | 4.531 ± 0.096
293.15 K, x2 = 0.4019 | 914.34 ± 0.55 | 4.967 ± 0.11
293.15 K, x2 = 0.4995 | 918.49 ± 0.55 | 5.61 ± 0.12
293.15 K, x2 = 0.5999 | 923.27 ± 0.56 | 6.396 ± 0.14
293.15 K, x2 = 0.6997 | 928.58 ± 0.56 | 7.57 ± 0.16
293.15 K, x2 = 0.7976 | 934.17 ± 0.56 | 8.863 ± 0.19
293.15 K, x2 = 0.9003 | 940.6 ± 0.57 | 10.32 ± 0.22
298.15 K, x2 = 0.0963 | 900.22 ± 0.54 | 3.42 ± 0.073
298.15 K, x2 = 0.1973 | 903.23 ± 0.55 | 3.627 ± 0.077
298.15 K, x2 = 0.3101 | 907 ± 0.55 | 3.953 ± 0.084
298.15 K, x2 = 0.4019 | 910.49 ± 0.55 | 4.3 ± 0.091
298.15 K, x2 = 0.4995 | 914.58 ± 0.55 | 4.805 ± 0.1
298.15 K, x2 = 0.5999 | 919.31 ± 0.56 | 5.428 ± 0.12
298.15 K, x2 = 0.6997 | 924.57 ± 0.56 | 6.304 ± 0.13
298.15 K, x2 = 0.7976 | 930.15 ± 0.56 | 7.3 ± 0.15
298.15 K, x2 = 0.9003 | 936.59 ± 0.57 | 8.417 ± 0.18
303.15 K, x2 = 0.0963 | 896.53 ± 0.54 | 3.048 ± 0.065
303.15 K, x2 = 0.1973 | 899.47 ± 0.54 | 3.212 ± 0.068
303.15 K, x2 = 0.3101 | 903.18 ± 0.55 | 3.477 ± 0.074
303.15 K, x2 = 0.4019 | 906.62 ± 0.55 | 3.756 ± 0.08
303.15 K, x2 = 0.4995 | 910.65 ± 0.55 | 4.154 ± 0.088
303.15 K, x2 = 0.5999 | 915.31 ± 0.55 | 4.643 ± 0.099
303.15 K, x2 = 0.6997 | 920.53 ± 0.56 | 5.319 ± 0.11
303.15 K, x2 = 0.7976 | 926.1 ± 0.56 | 6.092 ± 0.13
303.15 K, x2 = 0.9003 | 932.59 ± 0.56 | 6.972 ± 0.15
308.15 K, x2 = 0.0963 | 892.84 ± 0.54 | 2.729 ± 0.058
308.15 K, x2 = 0.1973 | 895.7 ± 0.54 | 2.863 ± 0.061
308.15 K, x2 = 0.3101 | 899.33 ± 0.54 | 3.076 ± 0.065
308.15 K, x2 = 0.4019 | 902.72 ± 0.55 | 3.302 ± 0.07
308.15 K, x2 = 0.4995 | 906.7 ± 0.55 | 3.618 ± 0.077
308.15 K, x2 = 0.5999 | 911.29 ± 0.55 | 4.007 ± 0.085
308.15 K, x2 = 0.6997 | 916.45 ± 0.55 | 4.532 ± 0.096
308.15 K, x2 = 0.7976 | 922.01 ± 0.56 | 5.135 ± 0.11
308.15 K, x2 = 0.9003 | 928.43 ± 0.56 | 5.829 ± 0.12
313.15 K, x2 = 0.0963 | 889.12 ± 0.54 | 2.457 ± 0.052
313.15 K, x2 = 0.1973 | 891.91 ± 0.54 | 2.565 ± 0.055
313.15 K, x2 = 0.3101 | 895.47 ± 0.54 | 2.736 ± 0.058
313.15 K, x2 = 0.4019 | 898.8 ± 0.54 | 2.919 ± 0.062
313.15 K, x2 = 0.4995 | 902.71 ± 0.55 | 3.174 ± 0.067
313.15 K, x2 = 0.5999 | 907.24 ± 0.55 | 3.484 ± 0.074
313.15 K, x2 = 0.6997 | 912.35 ± 0.55 | 3.891 ± 0.083
313.15 K, x2 = 0.7976 | 917.88 ± 0.55 | 4.365 ± 0.093
313.15 K, x2 = 0.9003 | 924.29 ± 0.56 | 4.915 ± 0.1
318.15 K, x2 = 0.0963 | 885.4 ± 0.54 | 2.222 ± 0.047
318.15 K, x2 = 0.1973 | 888.1 ± 0.54 | 2.307 ± 0.049
318.15 K, x2 = 0.3101 | 891.59 ± 0.54 | 2.447 ± 0.052
318.15 K, x2 = 0.4019 | 894.85 ± 0.54 | 2.595 ± 0.055
318.15 K, x2 = 0.4995 | 898.7 ± 0.54 | 2.801 ± 0.06
318.15 K, x2 = 0.5999 | 903.16 ± 0.55 | 3.048 ± 0.065
318.15 K, x2 = 0.6997 | 908.21 ± 0.55 | 3.368 ± 0.072
318.15 K, x2 = 0.7976 | 913.7 ± 0.55 | 3.742 ± 0.079
318.15 K, x2 = 0.9003 | 920.09 ± 0.56 | 4.179 ± 0.089
323.15 K, x2 = 0.0963 | 881.66 ± 0.53 | 2.018 ± 0.043
323.15 K, x2 = 0.1973 | 884.27 ± 0.54 | 2.083 ± 0.044
323.15 K, x2 = 0.3101 | 887.67 ± 0.54 | 2.199 ± 0.047
323.15 K, x2 = 0.4019 | 890.88 ± 0.54 | 2.32 ± 0.049
323.15 K, x2 = 0.4995 | 894.66 ± 0.54 | 2.485 ± 0.053
323.15 K, x2 = 0.5999 | 899.04 ± 0.54 | 2.681 ± 0.057
323.15 K, x2 = 0.6997 | 904.03 ± 0.55 | 2.935 ± 0.062
323.15 K, x2 = 0.7976 | 909.47 ± 0.55 | 3.234 ± 0.069
323.15 K, x2 = 0.9003 | 915.84 ± 0.55 | 3.582 ± 0.076
328.15 K, x2 = 0.0963 | 877.91 ± 0.53 | 1.841 ± 0.039
328.15 K, x2 = 0.1973 | 880.42 ± 0.53 | 1.893 ± 0.04
328.15 K, x2 = 0.3101 | 883.74 ± 0.54 | 1.984 ± 0.042
328.15 K, x2 = 0.4019 | 886.87 ± 0.54 | 2.082 ± 0.044
328.15 K, x2 = 0.4995 | 890.58 ± 0.54 | 2.217 ± 0.047
328.15 K, x2 = 0.5999 | 894.89 ± 0.54 | 2.376 ± 0.05
328.15 K, x2 = 0.6997 | 899.81 ± 0.54 | 2.576 ± 0.055
328.15 K, x2 = 0.7976 | 905.2 ± 0.55 | 2.814 ± 0.06
328.15 K, x2 = 0.9003 | 911.54 ± 0.55 | 3.093 ± 0.066
333.15 K, x2 = 0.0963 | 874.14 ± 0.53 | 1.686 ± 0.036
333.15 K, x2 = 0.1973 | 876.55 ± 0.53 | 1.724 ± 0.037
333.15 K, x2 = 0.3101 | 879.77 ± 0.53 | 1.797 ± 0.038
333.15 K, x2 = 0.4019 | 882.83 ± 0.54 | 1.877 ± 0.04
333.15 K, x2 = 0.4995 | 886.46 ± 0.54 | 1.987 ± 0.042
333.15 K, x2 = 0.5999 | 890.7 ± 0.54 | 2.116 ± 0.045
333.15 K, x2 = 0.6997 | 895.55 ± 0.54 | 2.275 ± 0.048
333.15 K, x2 = 0.7976 | 900.88 ± 0.55 | 2.469 ± 0.052
333.15 K, x2 = 0.9003 | 907.18 ± 0.55 | 2.689 ± 0.057
